Laboratory results as given in paper PMC12348798, “Synthesis and Molecular Modeling of Antioxidant and Anti-Inflammatory Five-Membered Heterocycle–Cinnamic Acid Hybrids” (Molecules, 2025).

system: not listed separately; assay: Inhibition of AAPH-induced linoleic acid peroxidation; conditions: not given
Experimental: In the lipid peroxidation assay, 2,2′-azobis(2-methylpropionamidine)dihydrochloride (AAPH) was used as a peroxyl radical inducer, and sodium linoleate as a substrate. The formation of 13-hydroperoxy-linoleic acid from linoleic acid was monitored by measuring absorbance at 234 nm. Trolox was used as a reference compound.
(§1) A 10 mM stock solution of the synthesized compounds was prepared in DMSO for the vitro assays. Serial dilutions were carried out to determine the IC50 values. Each experiment was conducted six times, with standard deviations remaining below 10% of the mean.
AAPH was employed as an inducer of alkyl peroxyl radicals. In this experiment, the compounds’ ability to inhibit the oxidation of linoleic acid by alkyl peroxyl radicals was assessed by monitoring the change in absorbance at 234 nm due to the formation of 13-hydroperoxy-linoleic acid. Trolox was used as the reference compound [59, 68].

Structure (SMILES) | AAPH % Inhibition 100 μM [%]
O=C(/C=C/c1ccc(Br)cc1)NNC(=S)Nc1ccccc1 [Compound 3d, (E)-2-(3-(4-Bromophenyl)acryloyl)-N-phenylhydrazine-1-carbothioamide] | 33
O=C(/C=C/c1ccc(Cl)cc1)NNC(=S)Nc1ccccc1 [Compound 3b, (E)-2-(3-(4-Chlorophenyl)acryloyl)-N-phenylhydrazine-1-carbothioamide] | 37
O=C(C=Cc1ccccc1)NNC(=S)Nc1ccccc1 [Compound 3a, 2-Cinnamoyl-N-phenylhydrazine-1-carbothioamide] | 67
CC(=O)Oc1ccc(/C=C/C(=O)NNC(=S)Nc2ccccc2)cc1 [Compound 3e, (E)-4-(3-Oxo-3-(2-(phenylcarbamothioyl)hydrazineyl)prop-1-en-1-yl)phenyl acetate] | 47
Fc1ccc(/C=C/c2nnc(S)n2-c2ccccc2)cc1 [Compound 4c, (E)-5-(4-Fluorostyryl)-4-phenyl-4H-1,2,4-triazole-3-thiol] | 94
C(=C\c1nnc(Nc2ccccc2)s1)/c1ccccc1 [Compound 6a, (E)-N-Phenyl-5-styryl-1,3,4-thiadiazol-2-amine] | 60
Fc1ccc(/C=C/c2nnc(Nc3ccccc3)o2)cc1 [Compound 5c, (E)-5-(4-Fluorostyryl)-N-phenyl-1,3,4-oxadiazol-2-amine] | 63
Cc1c(C)c2c(c(C)c1O)CCC(C)(C(=O)O)O2 (stereo not shown) [Trolox, 6-hydroxy-2,5,7,8-tetramethyl-chroman2-carboxylic acid, reference compound] | 92

target: T1, soybean lipoxygenase (Glycine max, UniProt P08170); assay: Inhibition of soybean lipoxygenase; type: biochemical; conditions: read-out: LOX % Inhibition 100 μM
T1 construct: purchased Sigma Aldrich, Merck KGaA, Darmstadt, Germany
T1 sequence (P08170 1-839): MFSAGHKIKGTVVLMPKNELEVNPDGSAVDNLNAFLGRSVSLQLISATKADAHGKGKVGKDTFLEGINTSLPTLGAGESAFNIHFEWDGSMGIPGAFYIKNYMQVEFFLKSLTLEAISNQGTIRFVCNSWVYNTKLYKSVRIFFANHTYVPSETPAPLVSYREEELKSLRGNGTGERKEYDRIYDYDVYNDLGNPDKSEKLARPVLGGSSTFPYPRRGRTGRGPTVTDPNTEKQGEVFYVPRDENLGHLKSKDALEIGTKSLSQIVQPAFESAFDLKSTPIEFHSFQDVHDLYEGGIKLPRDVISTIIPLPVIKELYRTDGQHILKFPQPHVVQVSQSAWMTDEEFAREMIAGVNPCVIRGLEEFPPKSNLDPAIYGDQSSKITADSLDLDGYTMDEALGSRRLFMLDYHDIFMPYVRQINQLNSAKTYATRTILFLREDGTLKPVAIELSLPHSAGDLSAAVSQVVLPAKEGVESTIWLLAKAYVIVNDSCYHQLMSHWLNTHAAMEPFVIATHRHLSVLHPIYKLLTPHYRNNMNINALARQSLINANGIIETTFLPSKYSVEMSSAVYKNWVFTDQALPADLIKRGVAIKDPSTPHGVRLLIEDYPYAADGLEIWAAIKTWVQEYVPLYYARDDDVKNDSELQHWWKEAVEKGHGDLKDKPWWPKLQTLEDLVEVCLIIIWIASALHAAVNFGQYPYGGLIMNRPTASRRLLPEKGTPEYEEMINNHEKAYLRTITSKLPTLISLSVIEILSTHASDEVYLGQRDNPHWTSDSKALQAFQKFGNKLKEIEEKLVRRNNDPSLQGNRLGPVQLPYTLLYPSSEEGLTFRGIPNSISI
Experimental: Lipoxygenase (LOX) is responsible for the formation of leukotrienes, important inflammatory mediators. Due to its important role, it is considered as a therapeutic target for inflammatory diseases. Soybean lipoxygenase (LOX), a plant-derived enzyme, has been extensively utilized as a model for investigating the functional and structural properties of the lipoxygenase family, due to its significant homology with human 5-LOX [35, 61].
A 10 mM stock solution of the synthesized compounds was prepared in DMSO for the vitro assays. Serial dilutions were carried out to determine the IC50 values.
Sodium linoleate (0.1 mM), 0.2 mL of soybean lipoxygenase solution (1/9 × 10^−4 w/v in saline), and 10 μL of the test compound stock solution (10 mM in DMSO) were incubated at room temperature. Absorbance was recorded at 234 nm while monitoring the formation of 13-hydroperoxy-linoleic acid. […] To determine IC50 values, various concentrations of the test compounds were applied.

inhibition at 100 µM [%] | Structure (SMILES)
49 | O=C(/C=C/c1ccc(Cl)cc1)NNC(=S)Nc1ccccc1 [Compound 3b, (E)-2-(3-(4-Chlorophenyl)acryloyl)-N-phenylhydrazine-1-carbothioamide]
35 | Fc1ccc(/C=C/c2nnc(S)n2-c2ccccc2)cc1 [Compound 4c, (E)-5-(4-Fluorostyryl)-4-phenyl-4H-1,2,4-triazole-3-thiol]

same assay, conditions: soybean lipoxygenase, sodium linoleate substrate; read-out: LOX IC50

Structure (SMILES) | IC50 [µM]
O=C(/C=C/c1ccc(Br)cc1)NNC(=S)Nc1ccccc1 [Compound 3d, (E)-2-(3-(4-Bromophenyl)acryloyl)-N-phenylhydrazine-1-carbothioamide] | 8
O=C(C=Cc1ccccc1)NNC(=S)Nc1ccccc1 [Compound 3a, 2-Cinnamoyl-N-phenylhydrazine-1-carbothioamide] | 8.5
CC(=O)Oc1ccc(/C=C/C(=O)NNC(=S)Nc2ccccc2)cc1 [Compound 3e, (E)-4-(3-Oxo-3-(2-(phenylcarbamothioyl)hydrazineyl)prop-1-en-1-yl)phenyl acetate] | 9.75

Next, values leading:

IC50 [µM] | Structure (SMILES)
18 | Clc1ccc(/C=C/c2nnc(Nc3ccccc3)o2)cc1 [Compound 5b, (E)-5-(4-Chlorostyryl)-N-phenyl-1,3,4-oxadiazol-2-amine]
5 | C(=C\c1nnc(Nc2ccccc2)s1)/c1ccccc1 [Compound 6a, (E)-N-Phenyl-5-styryl-1,3,4-thiadiazol-2-amine]
17 | Fc1ccc(/C=C/c2nnc(Nc3ccccc3)o2)cc1 [Compound 5c, (E)-5-(4-Fluorostyryl)-N-phenyl-1,3,4-oxadiazol-2-amine]

system: not listed separately; assay: Interaction with the stable free radical DPPH (reducing activity); conditions: 20 min
Experimental: Firstly, the synthesized derivatives were evaluated for their ability to interact with the stable free radical 2,2-diphenyl-1-picrylhydrazyl (DPPH) at a concentration of 100 μM after 20 and 60 min (Table 2). DPPH is a valuable tool for studying antioxidant activity. Its reactivity with lipophilic compounds is not solely determined by their lipophilicity. The specific chemical structure of the antioxidant, the solvent used, and other factors can all influence the interaction with DPPH. However, lipophilic compounds tend to be well dissolved in organic solvents reacting with DPPH. Based on previous findings, the antioxidant activity is related with lipophilicity.
as §1
An in vitro study was conducted as previously described by our group. Free radical scavenging activity was evaluated by measuring absorbance at 517 nm after 20 and 60 min at room temperature.

Structure (SMILES) | RA % 100 μM 20 min [%]
CC(Cc1ccc(O)c(O)c1)C(C)Cc1ccc(O)c(O)c1 (stereo not shown) [NDGA, Nordihydroguaiaretic acid, reference compound] | 87
O=C(/C=C/c1ccc(Br)cc1)NNC(=S)Nc1ccccc1 [Compound 3d, (E)-2-(3-(4-Bromophenyl)acryloyl)-N-phenylhydrazine-1-carbothioamide] | 29
O=C(/C=C/c1ccc(Cl)cc1)NNC(=S)Nc1ccccc1 [Compound 3b, (E)-2-(3-(4-Chlorophenyl)acryloyl)-N-phenylhydrazine-1-carbothioamide] | 90
O=C(C=Cc1ccccc1)NNC(=S)Nc1ccccc1 [Compound 3a, 2-Cinnamoyl-N-phenylhydrazine-1-carbothioamide] | 61
CC(=O)Oc1ccc(/C=C/C(=O)NNC(=S)Nc2ccccc2)cc1 [Compound 3e, (E)-4-(3-Oxo-3-(2-(phenylcarbamothioyl)hydrazineyl)prop-1-en-1-yl)phenyl acetate] | 83
Fc1ccc(/C=C/c2nnc(S)n2-c2ccccc2)cc1 [Compound 4c, (E)-5-(4-Fluorostyryl)-4-phenyl-4H-1,2,4-triazole-3-thiol] | 82
Clc1ccc(/C=C/c2nnc(Nc3ccccc3)o2)cc1 [Compound 5b, (E)-5-(4-Chlorostyryl)-N-phenyl-1,3,4-oxadiazol-2-amine] | 65
C(=C\c1nnc(Nc2ccccc2)s1)/c1ccccc1 [Compound 6a, (E)-N-Phenyl-5-styryl-1,3,4-thiadiazol-2-amine] | 98
Fc1ccc(/C=C/c2nnc(Nc3ccccc3)o2)cc1 [Compound 5c, (E)-5-(4-Fluorostyryl)-N-phenyl-1,3,4-oxadiazol-2-amine] | 92

same assay, conditions: 60 min

Structure (SMILES) | RA % 100 μM 60 min [%]
CC(Cc1ccc(O)c(O)c1)C(C)Cc1ccc(O)c(O)c1 (stereo not shown) [NDGA, Nordihydroguaiaretic acid, reference compound] | 93
O=C(/C=C/c1ccc(Br)cc1)NNC(=S)Nc1ccccc1 [Compound 3d, (E)-2-(3-(4-Bromophenyl)acryloyl)-N-phenylhydrazine-1-carbothioamide] | 97
O=C(/C=C/c1ccc(Cl)cc1)NNC(=S)Nc1ccccc1 [Compound 3b, (E)-2-(3-(4-Chlorophenyl)acryloyl)-N-phenylhydrazine-1-carbothioamide] | 83
O=C(C=Cc1ccccc1)NNC(=S)Nc1ccccc1 [Compound 3a, 2-Cinnamoyl-N-phenylhydrazine-1-carbothioamide] | 92
CC(=O)Oc1ccc(/C=C/C(=O)NNC(=S)Nc2ccccc2)cc1 [Compound 3e, (E)-4-(3-Oxo-3-(2-(phenylcarbamothioyl)hydrazineyl)prop-1-en-1-yl)phenyl acetate] | 21
Fc1ccc(/C=C/c2nnc(S)n2-c2ccccc2)cc1 [Compound 4c, (E)-5-(4-Fluorostyryl)-4-phenyl-4H-1,2,4-triazole-3-thiol] | 93
Clc1ccc(/C=C/c2nnc(Nc3ccccc3)o2)cc1 [Compound 5b, (E)-5-(4-Chlorostyryl)-N-phenyl-1,3,4-oxadiazol-2-amine] | 72
C(=C\c1nnc(Nc2ccccc2)s1)/c1ccccc1 [Compound 6a, (E)-N-Phenyl-5-styryl-1,3,4-thiadiazol-2-amine] | 96
Fc1ccc(/C=C/c2nnc(Nc3ccccc3)o2)cc1 [Compound 5c, (E)-5-(4-Fluorostyryl)-N-phenyl-1,3,4-oxadiazol-2-amine] | 82
